What was measured:
blackgrass = experiment: Test B postemergence herbicide test; type: in vivo, Alopecurus myosuroides; conditions: postemergence, visual rating, scale 0 (no effect) to 100 (complete control)
Method in brief: (§1)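 Visual control ratings, 0–100 versus untreated controls, taken after 13 to 15 days in the greenhouse. Blackgrass received a postemergence spray at the 1- to 4-leaf stage (2–18 cm); ducksalad, umbrella sedge and barnyardgrass were flooded-paddy treated at 2 leaves.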

[1] = tested on: small flower umbrella sedge; experiment: Test B flooded paddy test; type: in vivo, Cyperus difformis; conditions: 1000 g ai/ha, visual rating, scale 0 to 100 (0 no effect, 100 complete control), 13 to 15 days
Method in brief: as §1

large crabgrass = experiment: Test B pre-/postemergence herbicide test; type: in vivo, Digitaria sanguinalis; conditions: for Crabgrass, Large plant response rating: postemergence, scale 0 (no effect) to 100 (complete control)
Method in brief: (§2)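 Greenhouse pot assay with simultaneous preemergence (treated seed) and postemergence (2–18 cm seedlings) applications of surfactant-containing, non-phytotoxic solvent formulations. Response scored visually 13–15 days later on a 0–100 scale, 100 meaning complete control.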

corn = experiment: Test B pre-/postemergence herbicide test; type: in vivo, Zea mays; conditions: for Corn plant response rating: postemergence, scale 0 (no effect) to 100 (complete control)
Method in brief: as §2

velvetleaf = experiment: Test B pre-/postemergence herbicide test; type: in vivo, Abutilon theophrasti; conditions: for Velvetleaf plant response rating: postemergence, scale 0 (no effect) to 100 (complete control)
Method in brief: as §2

rice [2] = experiment: Test C flooded paddy test; type: in vivo, Oryza sativa
Method in brief: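 Injury scored visually against controls on a 0 (no effect) to 100 (complete control) scale, 12 to 14 days after treatment in greenhouse. Flooded paddy plants treated at 2-leaf stage; postemergence plants at 1- to 4-leaf stage, 2 to 18 cm tall.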

wheat = experiment: Test B postemergence herbicide test; type: in vivo, Triticum aestivum; design: key to Wheat plant response rating: 0 = no effect, 100 = complete control; conditions: postemergence, visual rating, scale 0 (no effect) to 100 (complete control)
Method in brief: (§3)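 After treating 2-leaf paddy plants or 2–18 cm postemergence plants (1 to 4 leaves) with formulated chemical, researchers kept them in a greenhouse for 13–15 days. Effects were judged visually versus controls: 0 indicates none, 100 total control.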

wild oat = experiment: Test B postemergence herbicide test; type: in vivo, Avena fatua; conditions: postemergence, visual rating, scale 0 (no effect) to 100 (complete control)
Method in brief: as §3

morningglory = experiment: Test B pre-/postemergence herbicide test; type: in vivo, Ipomoea coccinea; conditions: for Morningglory plant response rating: postemergence, scale 0 (no effect) to 100 (complete control)
Method in brief: (§4)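 Response was scored visually 13 to 15 days after treatment against untreated greenhouse controls, 0 meaning no effect and 100 complete control. Formulations (solvent mixture plus surfactant) went onto soil after planting, onto foliage of 1- to 4-leaf plants, and onto 2-leaf plants in a flooded paddy set including rice and barnyardgrass.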

lambsquarters = experiment: Test B pre-/postemergence herbicide test; type: in vivo, Chenopodium album; conditions: for Lambsquarters plant response rating: postemergence, scale 0 (no effect) to 100 (complete control)
Method in brief: as §2

pigweed = experiment: Test B pre-/postemergence herbicide test; type: in vivo, Amaranthus retroflexus; conditions: for Pigweed plant response rating: postemergence, scale 0 (no effect) to 100 (complete control)
Method in brief: as §2

barnyardgrass [3] = experiment: Test B flooded paddy test; type: in vivo, Echinochloa crus-galli; conditions: 1000 g ai/ha, visual rating, scale 0 to 100 (0 no effect, 100 complete control), 13 to 15 days
Method in brief: as §1

barnyardgrass [4] = experiment: Test C flooded paddy test; type: in vivo, Echinochloa crus-galli
Method in brief: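 Weeds and wheat were sprayed after emergence, at a height of 2 to 18 cm (1–4 leaves), and paddy barnyardgrass was flooded and treated at two leaves. Assessment took place 12–14 days later in the greenhouse on a 0-to-100 visual control scale. A dash means no result was obtained.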

Surinam grass = experiment: Test B pre-/postemergence herbicide test; type: in vivo, Urochloa decumbens; conditions: for Surinam Grass plant response rating: postemergence, scale 0 (no effect) to 100 (complete control)
Method in brief: as §2

rice [5] = experiment: Test B flooded paddy test; type: in vivo, Oryza sativa; conditions: 1000 g ai/ha, visual rating, scale 0 to 100 (0 no effect, 100 complete control), 13 to 15 days
Method in brief: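 Greenhouse test; postemergence application to plants at 1–4 leaves (2–18 cm); paddy species at 2 leaves; evaluated visually vs controls at 13–15 days; scale 0–100 (100 = complete control).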

ducksalad [6] = experiment: Test B flooded paddy test; type: in vivo, Heteranthera limosa; conditions: 1000 g ai/ha, visual rating, scale 0 to 100 (0 no effect, 100 complete control), 13 to 15 days
Method in brief: as §1

barnyardgrass [7] = experiment: Test B pre-/postemergence herbicide test; type: in vivo, Echinochloa crus-galli; conditions: for Barnyardgrass plant response rating: postemergence, scale 0 (no effect) to 100 (complete control)
Method in brief: as §4

ducksalad [8] = experiment: Test C flooded paddy test; type: in vivo, Heteranthera limosa
giant foxtail = experiment: Test B pre-/postemergence herbicide test; type: in vivo, Setaria faberi; conditions: for Foxtail, Giant plant response rating: postemergence, scale 0 (no effect) to 100 (complete control)
Method in brief: as §2

cocklebur = experiment: Test B pre-/postemergence herbicide test; type: in vivo, Xanthium strumarium; conditions: for Cocklebur plant response rating: postemergence, scale 0 (no effect) to 100 (complete control)
Method in brief: as §4

rice [9] = experiment: Test B pre-/postemergence herbicide test; type: in vivo, Oryza sativa; conditions: 0 = no effect, 100 = complete control, preemergence
Method in brief: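 Species tested were Echinochloa crus-galli, Ipomoea coccinea, Xanthium strumarium and Oryza sativa, treated both before emergence and at the 1- to 4-leaf stage; rice and barnyardgrass were also tested under flooding at 2 leaves. Greenhouse incubation lasted 13–15 days before visual 0–100 scoring.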

[10] = tested on: smallflower umbrella sedge; experiment: Test C flooded paddy test; type: in vivo, Cyperus difformis
[11] = 125 g ai/ha, 0 = no effect, 100 = complete control, preemergence
[12] = 500 g ai/ha, visual rating, 0 = no effect, 100 = complete control, preemergence
[13] = 62 g ai/ha, scale 0 to 100 (0 no effect, 100 complete control)
[14] = 125 g ai/ha, scale 0 to 100 (0 no effect, 100 complete control)
[15] = 250 g ai/ha, scale of 0 to 100, 0 is no effect, 100 is complete control
[16] = 500 g ai/ha, visual rating after 12 to 14 days, scale 0 to 100 (0 no effect, 100 complete control)

CCc1nc(C(C)(C)C)sc1C(=O)Nc1cccc(C(=O)N(C)C)c1 [Compound 228]
Blackgrass plant response rating (blackgrass; 125 g ai/ha): 30 | Blackgrass plant response rating (blackgrass; 500 g ai/ha): 40 | Sedge, Umbrella plant response rating [1]: 80 | Crabgrass, Large plant response rating (0 to 100 scale) (large crabgrass; [11]): 60 | Plant response rating, Crabgrass, Large (large crabgrass; [12]): 100 | Crabgrass, Large plant response rating (large crabgrass; 125 g ai/ha, visual rating): 20 | Crabgrass, Large plant response rating (large crabgrass; 500 g ai/ha, visual rating): 40 | Corn plant response rating (0 to 100 scale) (corn; [11]): 60 | Plant response rating, Corn (corn; [12]): 80 | Corn plant response rating (corn; 125 g ai/ha, visual rating): 10 | Corn plant response rating (corn; 500 g ai/ha, visual rating): 30 | Velvetleaf plant response rating (0 to 100 scale) (velvetleaf; [11]): 100 | Plant response rating, Velvetleaf (velvetleaf; [12]): 100 | Velvetleaf plant response rating (velvetleaf; 125 g ai/ha, visual rating): 60 | Velvetleaf plant response rating (velvetleaf; 500 g ai/ha, visual rating): 80 | Rice plant response rating (rice [2]; [13]): 75 | Rice plant response rating (rice [2]; [14]): 80 | Rice plant response rating (rice [2]; [15]): 80 | Plant response rating, Rice (rice [2]; [16]): 85 | Wheat plant response rating (wheat; 125 g ai/ha): 30 | Wheat plant response rating (wheat; 500 g ai/ha): 40 | Oat, Wild plant response rating (wild oat; 125 g ai/ha): 40 | Oat, Wild plant response rating (wild oat; 500 g ai/ha): 50 | Morningglory plant response rating (0 to 100 scale) (morningglory; [11]): 10 | Plant response rating, Morningglory (morningglory; [12]): 40 | Morningglory plant response rating (morningglory; 125 g ai/ha, visual rating): 70 | Morningglory plant response rating (morningglory; 500 g ai/ha, visual rating): 80 | Lambsquarters plant response rating (0 to 100 scale) (lambsquarters; [11]): 100 | Plant response rating, Lambsquarters (lambsquarters; [12]): 100 | Lambsquarters plant response rating (lambsquarters; 125 g ai/ha, visual rating): 70 | Lambsquarters plant response rating (lambsquarters; 500 g ai/ha, visual rating): 80 | Pigweed plant response rating (0 to 100 scale) (pigweed; [11]): 90 | Plant response rating, Pigweed (pigweed; [12]): 100 | Pigweed plant response rating (pigweed; 125 g ai/ha, visual rating): 50 | Pigweed plant response rating (pigweed; 500 g ai/ha, visual rating): 80 | Barnyardgrass plant response rating (barnyardgrass [3]): 90 | Barnyardgrass plant response rating (barnyardgrass [4]; [13]): 80 | Barnyardgrass plant response rating (barnyardgrass [4]; [14]): 85 | Barnyardgrass plant response rating (barnyardgrass [4]; [15]): 95 | Plant response rating, Barnyardgrass (barnyardgrass [4]; [16]): 95 | Surinam Grass plant response rating (0 to 100 scale) (Surinam grass; [11]): 60 | Plant response rating, Surinam Grass (Surinam grass; [12]): 100 | Surinam Grass plant response rating (Surinam grass; 125 g ai/ha, visual rating): 20 | Surinam Grass plant response rating (Surinam grass; 500 g ai/ha, visual rating): 40 | Rice plant response rating (rice [5]): 90 | Ducksalad plant response rating (ducksalad [6]): 90 | Barnyardgrass plant response rating (0 to 100 scale) (barnyardgrass [7]; [11]): 80 | Plant response rating, Barnyardgrass (barnyardgrass [7]; [12]): 100 | Barnyardgrass plant response rating (barnyardgrass [7]; 125 g ai/ha, visual rating): 30 | Barnyardgrass plant response rating (barnyardgrass [7]; 500 g ai/ha, visual rating): 70 | Ducksalad plant response rating (ducksalad [8]; [13]): 80 | Ducksalad plant response rating (ducksalad [8]; [14]): 85 | Ducksalad plant response rating (ducksalad [8]; [15]): 90 | Plant response rating, Ducksalad (ducksalad [8]; [16]): 90 | Foxtail, Giant plant response rating (0 to 100 scale) (giant foxtail; [11]): 70 | Plant response rating, Foxtail, Giant (giant foxtail; [12]): 100 | Foxtail, Giant plant response rating (giant foxtail; 125 g ai/ha, visual rating): 30 | Foxtail, Giant plant response rating (giant foxtail; 500 g ai/ha, visual rating): 50 | Cocklebur plant response rating (0 to 100 scale) (cocklebur; [11]): 30 | Plant response rating, Cocklebur (cocklebur; [12]): 80 | Cocklebur plant response rating (cocklebur; 125 g ai/ha, visual rating): 30 | Cocklebur plant response rating (cocklebur; 500 g ai/ha, visual rating): 80 | Rice plant response rating (0 to 100 scale) (rice [9]; 125 g ai/ha): 80 | Plant response rating, Rice (rice [9]; 500 g ai/ha, visual rating): 90 | Sedge, Umbrella plant response rating [10, 13]: 80 | Sedge, Umbrella plant response rating [10, 14]: 80 | Sedge, Umbrella plant response rating [10, 15]: 80 | Plant response rating, Sedge, Umbrella [10, 16]: 85

— US20060069132A1, “Azolecarboxamide herbicides” (priority 2004, published 2006)
